Data reported in patent publication US11077080B2, “Use of anti-connexin agents for modulating the therapeutic effect of psychotropic drugs” (Commissariat A L'Energie Atomique Et Aux Energies …, priority 2008, dated 2021).

System: electrical activity of the prefrontal cortex
Assay: Quantitative EEG spectral analysis (FFT relative powers) in conscious rats
Type: in vivo, Wistar rats
Conditions: for actual EEG effect: MFA 0.4 mg/kg ip; for increase in the relative powers in the prefrontal cortex: paroxetine 0.5 mg/kg ip alone
Experimental: A group of 6 conscious Wistar rats was pre-implanted with 6 bipolar bilateral electrodes (2 frontal, 2 anterior hippocampic, 2 posterior hippocampic).
Different treatments were conducted by circular combination of 6 rats by treatment (psychotropic treatment alone, anti-connexin treatment alone, anti-connexin+psychotropic combination treatment). The injection of meclofenamic acid (Sigma) is performed by slow submeningeal injection (80 ng/kg, 4.5 pg/second) or intraperitoneally at different doses. The injection of glycyrrhetinic acid (Sigma) is performed by submeningeal injection (80 ng/kg). The injection of clozapine (Sigma) is performed intraperitoneally (0.2 mg/kg). The injection of paroxetine (Sigma) is performed intraperitoneally (0.5 mg/kg). The injection of modafinil (Cephalon) is performed intraperitoneally (125 mg/kg and 250 mg/kg).
The EEG measurements were performed on the different groups of conscious rats (previously implanted and habituated) by 2-hour recordings after injection. The spectral analysis performed by Fourier transform (FFT) makes it possible to obtain relative powers, Hertz-by-Hertz and second-by-second. The FFT data is then averaged minute-by-minute and associated with the solvent control produced the day prior to the recording under strictly identical experimental conditions. The relative spectral powers of the left and right prefrontal cortices are then averaged by 5-minute periods, averaged by groups of 12 5-minute repetitions and represented hour-by-hour.
The data obtained from the relative quantitative EEG analysis of the effects of the different drugs administered individually (psychotropic alone or anti-connexin agents alone), presented in the examples, were subjected to a statistical analysis by analysis of variance (ANOVA) with three factors: “Frequency” (by Hz), “Time” (first and second hour by 12 averaged 5-minute repetitions) and “Animal” (6 different animals for each treatment). For the combinations of psychotropic and anti-connexin agents presented in the examples, a fourth ANOVA factor was introduced: “Anti-connexin combination”. The significance threshold of the relative power modifications for a given frequency for a psychotropic drug alone with respect to the control (solvent of the psychotropic agent) or a psychotropic drug in combination with an anti-connexin with respect to the psychotropic agent administered alone (in favor of a relative power increase or a decrease) was chosen at a value of P<0.05.

[1] = diazepam 1 mg/kg ip alone, first hour

Cc1ccc(Cl)c(Nc2ccccc2C(=O)O)c1Cl [MFA, Benzoic 2-[(2,6-di-chloro-3-phenyl)amino] acid]
increase in the EEG potential / synchronization of the prefrontal cerebral activity (MFA 80 ng/kg submeningeal, 8-10 Hz, first hour extending to second hour): 140%
actual EEG effect (first hour): no significant modification
actual EEG effect (second hour): slight significant increase
synchronization of the prefrontal cerebral activity at the second hour (MFA central administration (80 ng/kg submeningeal), second hour): decreases
synchronization of the prefrontal cerebral activity at the second hour (MFA peripheral administration (2.45 mg/kg ip), second hour): significant increase in synchronization continues at the second hour

CC(NC(C)(C)C)C(=O)c1cccc(Cl)c1 (stereo not drawn) [bupropion]
increase in power of the 8-10 Hz components (bupropion 0.16 mg/kg ip alone, first hour): around 180%
increase in power of the 8-10 Hz components (bupropion 0.8 mg/kg ip alone, first hour): ~450%
increase in power of the 8-10 Hz components (bupropion 4 mg/kg ip alone, first hour): ~280%

CN1CCN(C2=Nc3cc(Cl)ccc3Nc3ccccc32)CC1 [clozapine]
increase in the EEG potential / synchronization of the prefrontal cerebral activity (clozapine 0.2 mg/kg ip alone, 8-10 Hz, from first hour extending to second hour): 200%

CN1C(=O)CN=C(c2ccccc2)c2cc(Cl)ccc21 [diazepam]
decrease in power of the 4-7 Hz components [1]: around 25%
increase in the power of the 11-30 Hz components [1]: around 120%

CN(C)CCC[C@@]1(c2ccc(F)cc2)OCc2cc(C#N)ccc21 [escitalopram]
increase in power of the 6-8 Hz components (escitalopram 0.8 mg/kg ip alone, first hour): around 150%
increase in power of the 6-8 Hz components (escitalopram 4 mg/kg ip alone, first hour): ~200%

NC(=O)C[S+]([O-])C(c1ccccc1)c1ccccc1 (stereo not drawn) [modafinil]
increase in the EEG potential / synchronization of the prefrontal cerebral activity (modafinil 125 mg/kg ip alone, 2-5 Hz): 120%
increase in the EEG potential / synchronization of the prefrontal cerebral activity (modafinil 250 mg/kg ip alone, 2-5 Hz): 300%

Fc1ccc([C@@H]2CCNC[C@H]2COc2ccc3c(c2)OCO3)cc1 [paroxetine]
increase in the relative powers in the prefrontal cortex (8-10 Hz, first hour): around 200%
increase in the relative powers in the prefrontal cortex (8-10 Hz, second hour): around 300%

CN[C@H]1CC[C@@H](c2ccc(Cl)c(Cl)c2)c2ccccc21 [sertraline]
increase in power of the 7-9 Hz components (sertraline 0.16 mg/kg ip alone, first hour): around 260%
increase in power of the 7-9 Hz components (sertraline 0.8 mg/kg ip alone, first hour): around 260%
increase in power of the same components at the second hour (sertraline 0.8 mg/kg ip alone, second hour): 900%
increase in power of the 7-9 Hz components (sertraline 4 mg/kg ip alone, first hour): ~200%
increase in power of the same components at the second hour (sertraline 4 mg/kg ip alone, second hour): 450%

COc1ccc(C(CN(C)C)C2(O)CCCCC2)cc1 (stereo not drawn) [venlafaxine]
increase in power of the 8-10 Hz components (venlafaxine 0.16 mg/kg ip alone, first hour): around 120%
increase in power of the 8-10 Hz components (venlafaxine 4 mg/kg ip alone, first hour): ~200%
